Source: ChEMBL document CHEMBL3352216, “Triterpene glycosides from red ginseng marc and their anti-inflammatory activities” (Bioorg Med Chem Lett, 2014)
Values after ≈ are worked out from the molar mass of the structure shown. Active and inactive are the calls of the source. No cut-off for these calls is given here.

Columns and labels:
RAW264.7 [1] = experiment: Antiinflammatory activity in LPS-stimulated mouse RAW264.7 cells assessed as reduction in nitric oxide production at 80 uM after 24 hrs by Griess method based ELISA (reference value: 52.4 +/- 0.9 uM); assay type: functional
[2] = Cytotoxicity against LPS-stimulated mouse RAW264.7 cells assessed as cell viability at 40 uM after 24 hrs by MTT assay (reference value: 100%); assay type: cell-based; details: LPS-stimulated RAW264.7 cells, read-out: Activity
RAW264.7 [3] = experiment: Antiinflammatory activity in LPS-stimulated mouse RAW264.7 cells assessed as reduction in nitric oxide production at 40 uM after 24 hrs by Griess method based ELISA (reference value: 52.4 +/- 0.9 uM); assay type: functional
[4] = Cytotoxicity against LPS-stimulated mouse RAW264.7 cells assessed as cell viability at 80 uM after 24 hrs by MTT assay (reference value: 100%); assay type: cell-based; details: LPS-stimulated RAW264.7 cells, read-out: Activity
[5] = Cytotoxicity against LPS-stimulated mouse RAW264.7 cells assessed as cell viability at 120 uM after 24 hrs by MTT assay (reference value: 100%); assay type: cell-based; details: LPS-stimulated RAW264.7 cells, read-out: Activity
RAW264.7 [6] = experiment: Antiinflammatory activity in LPS-stimulated mouse RAW264.7 cells assessed as reduction in nitric oxide production at 120 uM after 24 hrs by Griess method based ELISA (reference value: 52.4 +/- 0.9 uM); assay type: functional
RAW264.7 [7] = experiment: Antiinflammatory activity in LPS-stimulated mouse RAW264.7 cells assessed as reduction in nitric oxide production after 24 hrs by Griess method based ELISA; assay type: functional, cell-based; details: RAW264.7, 24 h
RAW264.7 [8] = experiment: Antiinflammatory activity in LPS-stimulated mouse RAW264.7 cells assessed as reduction in COX2 expression at 10 uM co-incubated with LPS for 24 hrs by RT-PCR method relative to untreated control; assay type: functional
RAW264.7 [9] = experiment: Antiinflammatory activity in LPS-stimulated mouse RAW264.7 cells assessed as reduction in IL6 expression at 20 uM co-incubated with LPS for 24 hrs by RT-PCR method relative to untreated control; assay type: functional
RAW264.7 [10] = experiment: Antiinflammatory activity in LPS-stimulated mouse RAW264.7 cells assessed as reduction in IL-1beta expression at 20 uM co-incubated with LPS for 24 hrs by RT-PCR method relative to untreated control; assay type: functional
RAW264.7 [11] = experiment: Antiinflammatory activity in LPS-stimulated mouse RAW264.7 cells assessed as reduction in TNFalpha level at 10 to 40 uM co-incubated with LPS for 24 hrs by ELISA method; assay type: functional, cell-based
RAW264.7 [12] = experiment: Antiinflammatory activity in LPS-stimulated mouse RAW264.7 cells assessed as reduction in IL-1beta expression at 10 uM co-incubated with LPS for 24 hrs by RT-PCR method relative to untreated control; assay type: functional
[13] = Cytotoxicity against LPS-stimulated mouse RAW264.7 cells assessed as cell viability at 20 uM after 24 hrs by MTT assay (reference value: 100%); assay type: cell-based; details: LPS-stimulated RAW264.7 cells, read-out: Activity
RAW264.7 [14] = experiment: Antiinflammatory activity in LPS-stimulated mouse RAW264.7 cells assessed as reduction in nitric oxide production at 10 uM after 24 hrs by Griess method based ELISA (reference value: 52.4 +/- 0.9 uM); assay type: functional
RAW264.7 [15] = experiment: Antiinflammatory activity in LPS-stimulated mouse RAW264.7 cells assessed as reduction in IL6 expression at 10 uM co-incubated with LPS for 24 hrs by RT-PCR method relative to untreated control; assay type: functional
[16] = Cytotoxicity against LPS-stimulated mouse RAW264.7 cells assessed as cell viability at 10 uM after 24 hrs by MTT assay (reference value: 100%); assay type: cell-based; details: LPS-stimulated RAW264.7 cells, read-out: Activity
RAW264.7 [17] = experiment: Antiinflammatory activity in LPS-stimulated mouse RAW264.7 cells assessed as reduction in iNOS expression at 30 uM co-incubated with LPS for 24 hrs by RT-PCR method relative to untreated control; assay type: functional
RAW264.7 [18] = experiment: Antiinflammatory activity in LPS-stimulated mouse RAW264.7 cells assessed as reduction in COX2 expression at 30 uM co-incubated with LPS for 24 hrs by RT-PCR method relative to untreated control; assay type: functional
RAW264.7 [19] = experiment: Antiinflammatory activity in LPS-stimulated mouse RAW264.7 cells assessed as reduction in IL-1beta expression at 30 uM co-incubated with LPS for 24 hrs by RT-PCR method relative to untreated control; assay type: functional
RAW264.7 [20] = experiment: Antiinflammatory activity in LPS-stimulated mouse RAW264.7 cells assessed as reduction in TNFalpha expression at 10 uM co-incubated with LPS for 24 hrs by RT-PCR method relative to untreated control; assay type: functional
RAW264.7 [21] = experiment: Induction of iNOS mRNA expression in LPS-non-stimulated mouse RAW264.7 cells by RT-PCR method; assay type: cell-based
RAW264.7 [22] = experiment: Antiinflammatory activity in LPS-stimulated mouse RAW264.7 cells assessed as reduction in iNOS expression at 20 uM co-incubated with LPS for 24 hrs by RT-PCR method relative to untreated control; assay type: functional
RAW264.7 [23] = experiment: Antiinflammatory activity in LPS-stimulated mouse RAW264.7 cells assessed as reduction in TNFalpha expression at 30 uM co-incubated with LPS for 24 hrs by RT-PCR method relative to untreated control; assay type: functional
RAW264.7 [24] = experiment: Antiinflammatory activity in LPS-stimulated mouse RAW264.7 cells assessed as reduction in TNFalpha expression at 20 uM co-incubated with LPS for 24 hrs by RT-PCR method relative to untreated control; assay type: functional
RAW264.7 [25] = experiment: Antiinflammatory activity in LPS-stimulated mouse RAW264.7 cells assessed as reduction in COX2 expression at 20 uM co-incubated with LPS for 24 hrs by RT-PCR method relative to untreated control; assay type: functional
RAW264.7 [26] = experiment: Antiinflammatory activity in LPS-stimulated mouse RAW264.7 cells assessed as reduction in IL6 expression at 30 uM co-incubated with LPS for 24 hrs by RT-PCR method relative to untreated control; assay type: functional
RAW264.7 [27] = experiment: Antiinflammatory activity in LPS-stimulated mouse RAW264.7 cells assessed as reduction in nitric oxide production at 20 uM after 24 hrs by Griess method based ELISA (reference value: 52.4 +/- 0.9 uM); assay type: functional
RAW264.7 [28] = experiment: Antiinflammatory activity in LPS-stimulated mouse RAW264.7 cells assessed as reduction in iNOS expression at 10 uM co-incubated with LPS for 24 hrs by RT-PCR method relative to untreated control; assay type: functional
RAW264.7 [29] = experiment: Antiinflammatory activity in LPS-stimulated mouse RAW264.7 cells assessed as reduction in iNOS expression co-incubated with LPS for 24 hrs by RT-PCR method relative to untreated control; assay type: functional, cell-based

For `C[C@@H]1C[C@@H](O)[C@]2(C)CC[C@]3(C)[C@H](CC[C@@H]4[C@@]5(C)CC[C@H](O[C@@H]6O[C@H](CO)[C@@H](O)[C@H](O)[C@H]6O[C@@H]6O[C@H](CO)[C@@H](O)[C@H](O)[C@H]6O)C(C)(C)[C@@H]5CC[C@]43C)[C@@H]2[C@]1(C)O`, the Activity (RAW264.7 [1]) was 40.4 µM, the viability at 24 h, 40 µM [2] was 90.3% and the Activity (RAW264.7 [3]) was 54.5 µM. For the same compound, the viability at 24 h, 80 µM [4] was 91.7%, the viability at 24 h, 120 µM [5] was 73.9% and the Activity (RAW264.7 [6]) was 30.8 µM. The IC50 (RAW264.7 [7]) was 127 mg/L (≈ 161 µM).

In the case of `C[C@@H]1[C@H]2[C@H]3C[C@H](O)[C@@H]4[C@@]5(C)CC[C@H](O[C@H]6O[C@H](CO[C@H]7O[C@H](CO[C@H]8O[C@H](CO[C@H]9O[C@H](CO)[C@@H](O)[C@H](O)[C@H]9O)[C@@H](O)[C@H](O)[C@H]8O)[C@@H](O)[C@H](O)[C@H]7O)[C@@H](O)[C@H](O)[C@H]6O)C(C)(C)[C@@H]5CC[C@@]4(C)[C@]3(C)CC[C@@]2(C)CC[C@H]1C`, the “fold change (FC)” value (RAW264.7 [8]) is reported as 0.5, the “fold change (FC)” value (RAW264.7 [9]) is reported as 0.6 and the “fold change (FC)” value (RAW264.7 [10]) is reported as 0.7. For the same compound, the inhibition (RAW264.7 [11]) was “Active”, the “fold change (FC)” value (RAW264.7 [12]) was 0.7 and the viability at 24 h, 20 µM [13] was 126%. For the same compound, the Activity (RAW264.7 [14]) was 46.4 µM, the “fold change (FC)” value (RAW264.7 [15]) was 0.5 and the viability at 24 h, 40 µM [2] was 98.7%. The viability at 24 h, 10 µM [16] was 111%, the “fold change (FC)” value (RAW264.7 [17]) was 0.4 and the “fold change (FC)” value (RAW264.7 [18]) was 0.5. For the same compound, the “fold change (FC)” value (RAW264.7 [19]) was 0.6, the “fold change (FC)” value (RAW264.7 [20]) was 0.6 and the Activity (RAW264.7 [21]) was “Non-toxic”. The Activity (RAW264.7 [3]) was 7.1 µM, the “fold change (FC)” value (RAW264.7 [22]) was 0.7 and the “fold change (FC)” value (RAW264.7 [23]) was 0.6. The “fold change (FC)” value (RAW264.7 [24]) was 0.7, the “fold change (FC)” value (RAW264.7 [25]) was 0.6 and the “fold change (FC)” value (RAW264.7 [26]) was 0.7. The Activity (RAW264.7 [27]) was 39.8 µM, the “fold change (FC)” value (RAW264.7 [28]) was 0.7 and the inhibition (RAW264.7 [29]) was “Dose-dependent effect”. For the same compound, the IC50 (RAW264.7 [7]) was 25.9 mg/L (≈ 23.7 µM).
